The results in this text go back to patent US9101769B2, “High density epidural stimulation for facilitation of locomotion, posture, voluntary movement, and recovery of autonomic, sexual, vasomotor, and cognitive function after neurological injury” (The Regents of the University of California, priority 2011, dated 2015).

Test [1] deals with rat with complete mid-thoracic spinal cord transection. In words: Epidural stimulation coupled with drug therapy, locomotor behavior after complete spinal cord transection (FIG. 1). The format is in vivo. The procedure: FIG. 1 summarizes recent experiments in rats that were carried out to assess the effectiveness of epidural stimulation coupled with combined drug therapy in the treatment of complete spinal cord injuries. The combination of quipazine and 8-0HDPAT with simultaneous epidural stimulation at spinal sites L2 and S1 results in robust coordinated stepping as early as one week after a complete spinal cord transection. Locomotor behavior observed from a typical rat before the injury and one week after a complete mid-thoracic spinal cord transection. The amount of body weight support provided to the rat is shown in red. One week post-injury, no spontaneous stepping activity is observed. […] Sol, soleus; TA, tibialis anterior; MTP, metatarsal-phalangeal.
FIG. 1 summarizes experiments in rats that were carried out to assess the effectiveness of epidural stimulation coupled with combined drug therapy in acute treatment of complete spinal cord injury.

The next test has as its system stepping in animals. Description: Pharmacological facilitation of stepping, optimal concentration of illustrative agents (Table 1). Format: in vivo. The protocol:
In certain embodiments, the methods described herein are used in conjunction with various pharmacological agents. […] These agents can be used in combination with epidural stimulation and physical therapy as described above.
In certain embodiments, the drugs are administered systemically, while in other embodiments, the drugs are administered locally, e.g., to particular regions of the spinal cord. Drugs that modulate the excitability of the spinal neuromotor networks are combinations of noradrenergic, serotonergic, GABAergic, and glycinergic receptor agonists and antagonists. Illustrative pharmacological agents include, but are not limited to agonists and antagonists to one or more combinations of serotonergic: 5-HT1A, 5-HT2A, 5-HT3, and 5HT7 receptors; to noradrenergic alpha1 and 2 receptors; and to dopaminergic D1 and D2 receptors (see, e.g., Table 1).

The mark [2] stands for this setting: one week after complete mid-thoracic spinal cord transection, drug administration without epidural stimulation.
Setting [3] is: one week post-injury, epidural stimulation at L2 plus S1 with quipazine plus 8-OHDPAT together.
Setting [4] is: one week post-injury, epidural stimulation simultaneously at L2 plus S1 in combination with either quipazine or 8-OHDPAT.

As for `CCCN(CCC)C1CCc2cccc(O)c2C1` (stereo not drawn) [8-OHDPAT], the “Locomotor behavior (stepping)” value in test [1] (setting [2]) was “erratic movements”; in test [1] (setting [3]), “coordinated, plantar stepping with features resembling those observed pre-lesion”; in test [1] (setting [4]) it was “enables plantar stepping”. Further, the “Optimal Concentration” value with stepping in animals (route S.C.) was 0.05 mg/kg.
`Cc1nccn1CC1CCc2c(c3ccccc3n2C)C1=O` (stereo not drawn) [Ondanesetron]: the “Optimal Concentration” value in the test with stepping in animals (route I.P.) worked out at 3 mg/kg.
Turning to `c1ccc2nc(N3CCNCC3)ccc2c1` [Quipazine], the “Locomotor behavior (stepping)” value in test [1] (setting [2]) is given as “erratic movements”; in test [1] (setting [3]), “coordinated, plantar stepping with features resembling those observed pre-lesion”; in test [1] (setting [4]) it was “enables plantar stepping”.
For `CC1CCN(CC[C@H]2CCCN2S(=O)(=O)c2cccc(O)c2)CC1` [SB 269970], the “Optimal Concentration” value in the test on stepping in animals (route I.P.) worked out at 7 mg/kg.
For the compound `Oc1cc2c(c(Cl)c1O)CCNCC2c1ccccc1` (stereo not drawn) [SKF-81297], the “Optimal Concentration” value in the test with stepping in animals (route I.P.) was 0.2 mg/kg.
As to `Cl.NC1CCN(c2cccc(Cl)n2)CC1` [SR 57227A], the “Optimal Concentration” value in the test with stepping in animals (route I.P.) turned out to be 1.5 mg/kg.
As for `COc1ccccc1N1CCN(CCN(C(=O)C2CCCCC2)c2ccccn2)CC1` [Way 100.635], in the test with stepping in animals (route I.P.), the “Optimal Concentration” value stood at 0.5 mg/kg.
